The values below come from PubChem BioAssay (NCI).

Among the test systems are HCT-116 colon; LOX IMVI melanoma; SF-539 CNS; UACC-62 melanoma; MDA-MB-231 breast; SF-295 CNS; T-47D breast; IGROV1 ovarian; HOP-92 NSCLC; MALME-3M melanoma.
Experiment in all cases: growth of human tumour cells (NCI), 48 h

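Exposure lasted 48 hours, with cells grown in 96-well plates and compounds tested at five concentrations. GI50 = concentration required for 50% inhibition of growth. TGI: concentration producing complete growth inhibition.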

With `COc1cc(NCc2ccccc2O)c2ncccc2c1`, the GI50 in the test on HCT-116 colon is 16.6 µM; in the test with LOX IMVI melanoma it was 17.1 µM; with SF-539 CNS it was 21 µM; in the test with UACC-62 melanoma, 11.2 µM; with MDA-MB-231 breast, 14.3 µM; with SF-295 CNS it was 20.6 µM. Moreover, the GI50 in the test with T-47D breast was 20.4 µM; in the test with IGROV1 ovarian it was 13.7 µM; with HOP-92 NSCLC it was 3.83 µM; in the test on MALME-3M melanoma, 14 µM. For the same compound, the TGI was 63.4 µM in the test on HCT-116 colon; 67.3 µM in the test on LOX IMVI melanoma; above 100 µM in the test with SF-539 CNS; 53.1 µM in the test with UACC-62 melanoma; above 100 µM in the test on MDA-MB-231 breast; 67.4 µM in the test on SF-295 CNS. For the same compound, the TGI in the test with T-47D breast was above 100 µM; with IGROV1 ovarian, 56.2 µM; in the test with HOP-92 NSCLC, 30.3 µM; in the test with MALME-3M melanoma, 44.4 µM.
On to `CCc1c(O)c2c(c(O)c1C(C)=O)C(=O)c1c(cc(O)c(C(=O)O)c1C(=O)O)C2=O`, for which the TGI in the test on HCT-116 colon, in the test on LOX IMVI melanoma, in the test with SF-539 CNS, in the test with UACC-62 melanoma, in the test on MDA-MB-231 breast and in the test on SF-295 CNS was above 100 µM in each case. In addition, the TGI in the test with T-47D breast, in the test on IGROV1 ovarian, with HOP-92 NSCLC and in the test with MALME-3M melanoma was above 100 µM throughout.
Turning to `CC(=O)c1cc2c(c3ccsc13)-c1ccccc1CC2`, the GI50 in the test with HCT-116 colon is 20.3 µM; with LOX IMVI melanoma, 32.3 µM; in the test on SF-539 CNS it was 27.9 µM; in the test on UACC-62 melanoma, 7.71 µM; in the test on MDA-MB-231 breast, 16.4 µM; in the test with SF-295 CNS it was 26.5 µM. Also, the GI50 is above 100 µM with T-47D breast, 36 µM in the test on IGROV1 ovarian, 28.9 µM with HOP-92 NSCLC and 15.7 µM with MALME-3M melanoma. For the same compound, the TGI in the test with HCT-116 colon was above 100 µM; with LOX IMVI melanoma, above 100 µM; with SF-539 CNS, above 100 µM; in the test with UACC-62 melanoma, above 100 µM; in the test on MDA-MB-231 breast it was 67.1 µM; in the test with SF-295 CNS, above 100 µM. Besides, the TGI with T-47D breast was above 100 µM; with IGROV1 ovarian it was above 100 µM; in the test with HOP-92 NSCLC, above 100 µM; in the test with MALME-3M melanoma it was 55.2 µM.
As to `O=C(Nc1ccc(Cl)cc1)c1cc(S(=O)(=O)Nc2nnc(-c3ccccc3)c(-c3ccccc3)n2)c(SCc2ccccc2)cc1Cl`, the GI50 is 19.8 µM with HCT-116 colon; 17.3 µM in the test with LOX IMVI melanoma; 35 µM in the test with SF-539 CNS; 18.2 µM in the test on UACC-62 melanoma; 19.3 µM in the test with MDA-MB-231 breast; 19 µM in the test on SF-295 CNS. Moreover, the GI50 is 24.8 µM with T-47D breast, 33.6 µM in the test with IGROV1 ovarian, 25.3 µM with HOP-92 NSCLC and 34.2 µM in the test on MALME-3M melanoma. For the same compound, the TGI in the test on HCT-116 colon was 46.5 µM; in the test with LOX IMVI melanoma it was 35.1 µM; in the test with SF-539 CNS it was above 100 µM; in the test on UACC-62 melanoma, 39.7 µM; with MDA-MB-231 breast it was above 56.2 µM; in the test with SF-295 CNS, 41.5 µM. The TGI in the test on T-47D breast was above 64.2 µM; in the test on IGROV1 ovarian it was above 95.4 µM; in the test on HOP-92 NSCLC, 66.8 µM; in the test with MALME-3M melanoma, above 100 µM.
Take `CC(C)(C)OC(=O)CN1CCc2c(sc3ncnc(N/N=C/c4cccc5ccccc45)c23)C1`: the GI50 in the test on HCT-116 colon is 1.65 µM; with LOX IMVI melanoma, 1.72 µM; in the test with SF-539 CNS, 1.73 µM; with UACC-62 melanoma it was 1.32 µM; in the test on MDA-MB-231 breast it was 2.64 µM; with SF-295 CNS, 4.41 µM. Moreover, the GI50 in the test on T-47D breast was 1.83 µM; in the test on IGROV1 ovarian, 1.87 µM; with HOP-92 NSCLC, 1.74 µM; in the test with MALME-3M melanoma, 3.51 µM. The TGI in the test on HCT-116 colon was determined as 6.73 µM; in the test with LOX IMVI melanoma, 5.93 µM; in the test on SF-539 CNS, 7.02 µM; with UACC-62 melanoma, 5.48 µM; in the test on MDA-MB-231 breast, 9.21 µM; in the test on SF-295 CNS, 10.2 µM. For the same compound, the TGI in the test on T-47D breast came out at 17.9 µM; in the test on IGROV1 ovarian, 7.4 µM; in the test on HOP-92 NSCLC, 16.7 µM; with MALME-3M melanoma, 8.69 µM.
For the compound `COC(=O)OCc1ccc2c(c1)C(=O)c1c-2n(CCCBr)c(=O)c2cc([N+](=O)[O-])ccc12`, the GI50 was 81.2 µM in the test on HCT-116 colon; 74.3 µM in the test on LOX IMVI melanoma; 56 µM with SF-539 CNS; 33.5 µM in the test on UACC-62 melanoma; 52.7 µM with MDA-MB-231 breast; 31.7 µM in the test on SF-295 CNS. Besides, the GI50 in the test on T-47D breast was above 100 µM; in the test with IGROV1 ovarian it was 54.3 µM; with HOP-92 NSCLC it was 28.9 µM; with MALME-3M melanoma it was above 100 µM. Also, the TGI in the test on HCT-116 colon, with LOX IMVI melanoma, in the test on SF-539 CNS, with UACC-62 melanoma, in the test on MDA-MB-231 breast and with SF-295 CNS was above 100 µM each time. The TGI is above 100 µM in the test on T-47D breast, above 100 µM in the test on IGROV1 ovarian, 77.1 µM in the test with HOP-92 NSCLC and above 100 µM in the test with MALME-3M melanoma.
Consider `O=c1c2ccccc2nc(-c2ccccc2)n1O`, for which the TGI in the test with HCT-116 colon, with LOX IMVI melanoma, in the test with SF-539 CNS, with UACC-62 melanoma, in the test with MDA-MB-231 breast and with SF-295 CNS was above 100 µM in each case. For the same compound, the TGI in the test on T-47D breast, in the test on IGROV1 ovarian, in the test on HOP-92 NSCLC and in the test with MALME-3M melanoma was above 100 µM in each case.
Take `O=S(=O)(NCCNc1cc(-c2cn(-c3ccccc3)nc2-c2cccc(O)c2)ccn1)c1ccc(Cl)cc1`: the GI50 was 2.69 µM with HCT-116 colon; 1.76 µM in the test with LOX IMVI melanoma; 2.08 µM in the test on SF-539 CNS; 2.08 µM in the test with UACC-62 melanoma; 2.14 µM in the test with MDA-MB-231 breast; 2.16 µM in the test with T-47D breast. For the same compound, the figures for the GI50 in the test with IGROV1 ovarian, in the test on HOP-92 NSCLC and in the test with MALME-3M melanoma were 3.82 µM, 2.34 µM and 2.16 µM, respectively. Also, the TGI was 11.4 µM in the test with HCT-116 colon; 3.56 µM in the test with LOX IMVI melanoma; 5.3 µM in the test on SF-539 CNS; 5.08 µM with UACC-62 melanoma; 5.56 µM in the test on MDA-MB-231 breast; 7.74 µM in the test with T-47D breast. Moreover, the values for the TGI with IGROV1 ovarian, in the test with HOP-92 NSCLC and in the test on MALME-3M melanoma were 24.2 µM, 8.35 µM and 5.47 µM, respectively.
